Among the test systems are BT-549 breast; HOP-62 NSCLC; MOLT-4 leukemia; NCI-H23 lung; SF-268 CNS; SF-295 CNS; SK-MEL-5 melanoma; SR leukemia; T-47D breast; HOP-92 NSCLC.
Experiment in all cases: inhibition of tumour cell growth, NCI panel, 48 h

Molecules are shown by their SMILES.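 Five compound concentrations were applied to cells in 96-well plates for 48 hours; endpoints were derived by simple linear interpolation of the resulting dose-response curve. The concentration for 50% growth inhibition is given as GI50. TGI: total growth inhibition.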

The text below walks through data of PubChem BioAssay (NCI).

With `CCOC(=O)c1cc(C2=CCNC2=O)c(-c2cc(C)no2)[nH]1`, the TGI in the assay with BT-549 breast, in the assay with HOP-62 NSCLC, in the assay on MOLT-4 leukemia, in the assay on NCI-H23 lung, with SF-268 CNS and in the assay on SF-295 CNS was greater than 100 µM each time. The TGI in the assay with SK-MEL-5 melanoma, in the assay on SR leukemia and in the assay with T-47D breast was greater than 100 µM in each case.

Turning to `Clc1cc2nc(C3CCCCO3)[nH]c2cc1Cl` (stereo not drawn), the TGI was 68.1 µM in the assay with BT-549 breast; greater than 100 µM in the assay on HOP-62 NSCLC; greater than 100 µM in the assay with HOP-92 NSCLC; greater than 100 µM in the assay on MOLT-4 leukemia; greater than 59.8 µM in the assay with NCI-H23 lung; greater than 100 µM with SF-268 CNS. Besides, the TGI with SF-295 CNS is greater than 100 µM; with SK-MEL-5 melanoma, greater than 100 µM; with SR leukemia, greater than 100 µM; with T-47D breast, greater than 93.9 µM.

Turning to `O=C(c1cc(Cl)cc(Cl)c1)N(Cc1cccnc1)C(=S)N(Cc1cccnc1)C(=O)c1cc(Cl)cc(Cl)c1`, the TGI with BT-549 breast was 81.5 µM; in the assay on HOP-62 NSCLC, 75.1 µM; in the assay with HOP-92 NSCLC, greater than 100 µM; in the assay on MOLT-4 leukemia it was greater than 100 µM; in the assay on NCI-H23 lung it was greater than 100 µM; with SF-268 CNS, greater than 100 µM. In addition, the TGI in the assay on SF-295 CNS was greater than 100 µM; with SK-MEL-5 melanoma, 76 µM; in the assay on SR leukemia, greater than 100 µM; in the assay on T-47D breast, greater than 100 µM.

For `CC1=NN(c2cccc(Cl)c2)C2(C1=Cc1cccs1)C(Cl)C(=O)N2c1nc2ccccc2s1` (stereo not drawn), the TGI in the assay with BT-549 breast was 49.4 µM; in the assay on HOP-62 NSCLC, greater than 100 µM; in the assay with HOP-92 NSCLC, 52.7 µM; with MOLT-4 leukemia it was 57.1 µM; in the assay with NCI-H23 lung, 47.2 µM; with SF-268 CNS, 47.9 µM. The TGI in the assay with SF-295 CNS is 55.9 µM; in the assay with SK-MEL-5 melanoma it was 36.2 µM; in the assay on SR leukemia, 48.5 µM; in the assay with T-47D breast, greater than 100 µM.

For the compound `Clc1ccc(OCc2nnc3sc(SSc4nn5c(COc6ccc(Cl)cc6)nnc5s4)nn23)cc1`, the results for the GI50 in the assay with BT-549 breast, in the assay with HOP-92 NSCLC and with SR leukemia were 48.1 µM, 18.2 µM and 14.2 µM, respectively. In addition, the TGI in the assay on BT-549 breast, with HOP-62 NSCLC, with HOP-92 NSCLC, in the assay on NCI-H23 lung, in the assay on SF-268 CNS and with SF-295 CNS was greater than 100 µM in each case. The TGI in the assay on SK-MEL-5 melanoma, in the assay on SR leukemia and in the assay with T-47D breast was greater than 100 µM throughout.

As for `O=C(CCc1ccc(O)c(O)c1)NCCc1ccccc1`, the TGI was greater than 89.1 µM in the assay on BT-549 breast; greater than 100 µM in the assay with HOP-62 NSCLC; greater than 100 µM with HOP-92 NSCLC; greater than 100 µM in the assay with MOLT-4 leukemia; greater than 100 µM in the assay on NCI-H23 lung; greater than 100 µM with SF-268 CNS. In addition, the TGI with SF-295 CNS is greater than 100 µM; with SK-MEL-5 melanoma it was greater than 48.7 µM; in the assay with SR leukemia, 47.5 µM; with T-47D breast, greater than 100 µM.

With `COC(O)C(=O)c1c2c(cc3c1CCC3)CCC2` (stereo not drawn), the TGI in the assay on BT-549 breast, with HOP-62 NSCLC, with MOLT-4 leukemia, with NCI-H23 lung, with SF-268 CNS and in the assay on SF-295 CNS was greater than 100 µM in each case. In addition, the TGI in the assay on SK-MEL-5 melanoma, with SR leukemia and in the assay on T-47D breast was greater than 100 µM throughout.

`O=C1C=CC(=O)c2c(O)c(NCCO)c(Cl)c(O)c21`: the TGI is greater than 5.74 µM with BT-549 breast; greater than 8.35 µM in the assay with HOP-62 NSCLC; greater than 10 µM in the assay with HOP-92 NSCLC; greater than 10 µM in the assay with MOLT-4 leukemia; 5.59 µM with NCI-H23 lung; greater than 10 µM in the assay on SF-268 CNS. Besides, the TGI is 4.81 µM in the assay on SF-295 CNS, 2.75 µM in the assay on SK-MEL-5 melanoma, greater than 6.94 µM in the assay with SR leukemia and greater than 7.77 µM in the assay on T-47D breast.

Regarding `C/C(=N\Nc1nc2ccccc2o1)c1ncccn1`, the TGI is 34.8 µM in the assay on BT-549 breast; 2.91 µM in the assay on HOP-62 NSCLC; 16.6 µM in the assay on HOP-92 NSCLC; 0.0282 µM in the assay with MOLT-4 leukemia; 5.87 µM in the assay on NCI-H23 lung; greater than 72.2 µM in the assay with SF-268 CNS. For the same compound, the TGI came to 6.06 µM with SF-295 CNS, 13.9 µM in the assay on SK-MEL-5 melanoma, 0.228 µM with SR leukemia and 28.5 µM in the assay with T-47D breast.

With `Cc1n[nH]c(=O)n1Nc1ccccc1`, the TGI in the assay on BT-549 breast, in the assay on HOP-62 NSCLC, in the assay on HOP-92 NSCLC, with MOLT-4 leukemia, with NCI-H23 lung and with SF-268 CNS was greater than 100 µM throughout. The TGI with SF-295 CNS, with SK-MEL-5 melanoma, in the assay on SR leukemia and in the assay on T-47D breast was greater than 100 µM each time.

In the case of `O=c1sc(Nc2ccc3ccccc3c2Cl)nc2ccccc12`, the TGI with BT-549 breast, in the assay on HOP-62 NSCLC, in the assay on HOP-92 NSCLC, in the assay with NCI-H23 lung, with SF-268 CNS and with SF-295 CNS was greater than 100 µM in each case. For the same compound, the TGI in the assay with SK-MEL-5 melanoma, in the assay with SR leukemia and with T-47D breast was greater than 100 µM throughout.

For the compound `COc1cccc(C2c3cc4c(cc3OC(NNC(N)=O)C2C)OCO4)c1O` (stereo not drawn), the TGI is greater than 100 µM with BT-549 breast; 54 µM in the assay with HOP-62 NSCLC; 51.8 µM in the assay on HOP-92 NSCLC; greater than 100 µM with MOLT-4 leukemia; greater than 100 µM with NCI-H23 lung; greater than 72.2 µM in the assay on SF-268 CNS. Besides, the TGI with SF-295 CNS is 14 µM; in the assay on SK-MEL-5 melanoma, 8.54 µM; in the assay with SR leukemia it was greater than 19.8 µM; with T-47D breast, greater than 100 µM.

In the case of `CC(=O)c1cc(CC2Cc3cc4c(cc3C2=O)CCC4)cc2c1CCC2` (stereo not drawn), the TGI is greater than 100 µM in the assay with BT-549 breast; greater than 100 µM in the assay with HOP-62 NSCLC; 90.5 µM with MOLT-4 leukemia; greater than 100 µM with NCI-H23 lung; greater than 100 µM in the assay on SF-268 CNS; greater than 100 µM in the assay with SF-295 CNS. In addition, the TGI in the assay with SK-MEL-5 melanoma is 61.2 µM; in the assay with SR leukemia, greater than 100 µM; in the assay on T-47D breast, greater than 100 µM.
